Test results from PubChem BioAssay AID256 (DTP/NCI, 2004).
Inconclusive results and toxic doses are left out. The calls were made as follows: active = survival T/C of 150% or more; inactive = T/C below 125% in these data.

Tested on: CD2F1 mice, L1210 leukemia ip, survival T/C
Experiment: NCI In Vivo Anticancer Drug Screen. Data for tumor model L1210 Leukemia (intraperitoneal) in CD2F1 (CDF1) mice
Conditions: endpoint: mean survival time, higher = longer survival
Experimental: The antitumor activity of compounds was measured in mice bearing transplantable tumors. Survival or tumor size were measured and the results are expressed as the measurement made in the treated group (T) divided by the measurement made in the vehicle treated control group (C). The tumor model used in this assay is L1210 Leukemia (intraperitoneal) in CD2F1 (CDF1) mice

[1] = dose: 100.0 mg/kg/injection, schedule: Q04DX003 (ip), vehicle: saline with Tween-80
[2] = dose: 200.0 mg/kg/injection, schedule: Q04DX003 (ip), vehicle: saline with Tween-80
[3] = dose: 400.0 mg/kg/injection, schedule: Q04DX003 (ip), vehicle: saline with Tween-80
[4] = dose: 100.0 mg/kg/injection, schedule: Q01DX009 (ip), vehicle: saline with Tween-80
[5] = dose: 200.0 mg/kg/injection, schedule: Q01DX009 (ip), vehicle: saline with Tween-80
[6] = dose: 400.0 mg/kg/injection, schedule: Q01DX009 (ip), vehicle: saline with Tween-80
[7] = dose: 100.0 mg/kg/injection, schedule: Q01DX009 (ip), vehicle: saline

Measured: T/C

O=C(Nc1nc2ccccc2s1)c1cc2ccccc2cc1O
inactive: [1] 87 % of control | [2] 98 % of control | [3] 91 % of control

CC(=O)Oc1cccc(C#N)c1
inactive: [4] 100 % of control | [5] 100 % of control | [6] 96 % of control

O=C(O)CNC(=O)C(CSC(c1ccccc1)(c1ccccc1)c1ccccc1)NC(c1ccccc1)(c1ccccc1)c1ccccc1 (stereo unspecified)
inactive: dose: 75.0 mg/kg/injection, schedule: Q01DX001 (ip), vehicle: saline 97 % of control

Nc1nc(N)c2c(n1)NCN(CCc1ccc(Cl)cc1)C2
inactive: dose: 0.75 mg/kg/injection, schedule: Q01DX009 (ip), vehicle: distilled water + Tween-80 100 % of control | dose: 1.5 mg/kg/injection, schedule: Q01DX009 (ip), vehicle: distilled water + Tween-80 102 % of control | dose: 3.0 mg/kg/injection, schedule: Q01DX009 (ip), vehicle: distilled water + Tween-80 102 % of control | dose: 6.0 mg/kg/injection, schedule: Q01DX009 (ip), vehicle: distilled water + Tween-80 100 % of control | dose: 12.0 mg/kg/injection, schedule: Q01DX009 (ip), vehicle: distilled water + Tween-80 100 % of control | dose: 24.0 mg/kg/injection, schedule: Q01DX009 (ip), vehicle: distilled water + Tween-80 98 % of control

NC1=NC(CCc2ccccc2)N(c2ccc3ccccc3c2)C(N)=N1 (stereo unspecified)
inactive: dose: 4.7 mg/kg/injection, schedule: Q04DX003 (ip), vehicle: saline 104 % of control | dose: 9.4 mg/kg/injection, schedule: Q04DX003 (ip), vehicle: saline 100 % of control | dose: 18.8 mg/kg/injection, schedule: Q04DX003 (ip), vehicle: saline 100 % of control

COc1cc(C[C@H]2c3cc(OC)c(OC)cc3CCN2C)c(Oc2cc3c(cc2OC)-c2c(OC)c(OC)cc4c2[C@H](C3)N(C)CC4)cc1OC
inactive: dose: 2.5 mg/kg/injection, schedule: Q03HX016 (ip), vehicle: saline 92 % of control | dose: 2.5 mg/kg/injection, schedule: Q03HX024 (ip), vehicle: saline 94 % of control | dose: 5.0 mg/kg/injection, schedule: Q03HX008 (ip), vehicle: saline 95 % of control | dose: 5.0 mg/kg/injection, schedule: Q03HX016 (ip), vehicle: saline 93 % of control | dose: 5.0 mg/kg/injection, schedule: Q03HX024 (ip), vehicle: saline 91 % of control | dose: 6.25 mg/kg/injection, schedule: Q01DX009 (ip), vehicle: saline 95 % of control | dose: 10.0 mg/kg/injection, schedule: Q03HX008 (ip), vehicle: saline 93 % of control | dose: 10.0 mg/kg/injection, schedule: Q03HX016 (ip), vehicle: saline 91 % of control | dose: 10.0 mg/kg/injection, schedule: Q03HX024 (ip), vehicle: saline 92 % of control | dose: 12.5 mg/kg/injection, schedule: Q01DX009 (ip), vehicle: saline 94 % of control | dose: 12.5 mg/kg/injection, schedule: Q01DX009 (oral), vehicle: saline 98 % of control | dose: 20.0 mg/kg/injection, schedule: Q03HX008 (ip), vehicle: saline 95 % of control | dose: 20.0 mg/kg/injection, schedule: Q03HX016 (ip), vehicle: saline 95 % of control | dose: 20.0 mg/kg/injection, schedule: Q03HX024 (ip), vehicle: saline 96 % of control | dose: 25.0 mg/kg/injection, schedule: Q01DX009 (ip), vehicle: saline 94 % of control | dose: 25.0 mg/kg/injection, schedule: Q01DX009 (oral), vehicle: saline 101 % of control | dose: 25.0 mg/kg/injection, schedule: Q04DX003 (ip), vehicle: saline 98 % of control | dose: 25.0 mg/kg/injection, schedule: Q08DX002 (ip), vehicle: saline 92 % of control | dose: 40.0 mg/kg/injection, schedule: Q03HX008 (ip), vehicle: saline 97 % of control | dose: 40.0 mg/kg/injection, schedule: Q03HX016 (ip), vehicle: saline 93 % of control | dose: 40.0 mg/kg/injection, schedule: Q03HX024 (ip), vehicle: saline 89 % of control | dose: 50.0 mg/kg/injection, schedule: Q01DX001 (ip), vehicle: saline 87 % of control | dose: 50.0 mg/kg/injection, schedule: Q01DX009 (ip), vehicle: saline 94 % of control | dose: 50.0 mg/kg/injection, schedule: Q01DX009 (oral), vehicle: saline 96 % of control | dose: 50.0 mg/kg/injection, schedule: Q04DX003 (ip), vehicle: saline 98 % of control | dose: 50.0 mg/kg/injection, schedule: Q08DX002 (ip), vehicle: saline 94 % of control | dose: 80.0 mg/kg/injection, schedule: Q03HX008 (ip), vehicle: saline 98 % of control | dose: 100.0 mg/kg/injection, schedule: Q01DX001 (ip), vehicle: saline 87 % of control | dose: 100.0 mg/kg/injection, schedule: Q01DX001 (oral), vehicle: saline 101 % of control | [7] 94 % of control | dose: 100.0 mg/kg/injection, schedule: Q01DX009 (oral), vehicle: saline 106 % of control | dose: 100.0 mg/kg/injection, schedule: Q04DX003 (ip), vehicle: saline 95 % of control | dose: 100.0 mg/kg/injection, schedule: Q08DX002 (ip), vehicle: saline 92 % of control | dose: 200.0 mg/kg/injection, schedule: Q01DX001 (oral), vehicle: saline 101 % of control | dose: 200.0 mg/kg/injection, schedule: Q01DX009 (oral), vehicle: saline 109 % of control | dose: 200.0 mg/kg/injection, schedule: Q04DX003 (ip), vehicle: saline 105 % of control | dose: 200.0 mg/kg/injection, schedule: Q08DX002 (ip), vehicle: saline 94 % of control | dose: 400.0 mg/kg/injection, schedule: Q01DX001 (ip), vehicle: saline 89 % of control | dose: 400.0 mg/kg/injection, schedule: Q01DX001 (oral), vehicle: saline 103 % of control | dose: 400.0 mg/kg/injection, schedule: Q08DX002 (ip), vehicle: saline 90 % of control | dose: 800.0 mg/kg/injection, schedule: Q01DX001 (ip), vehicle: saline 90 % of control | dose: 800.0 mg/kg/injection, schedule: Q01DX001 (oral), vehicle: saline 104 % of control | dose: 1600.0 mg/kg/injection, schedule: Q01DX001 (oral), vehicle: saline 102 % of control

CNC(=S)N1CCSN1NC
inactive: dose: 100.0 mg/kg/injection, schedule: Q04DX002 (ip), vehicle: saline with Tween-80 91 % of control | dose: 200.0 mg/kg/injection, schedule: Q04DX002 (ip), vehicle: saline with Tween-80 95 % of control | dose: 400.0 mg/kg/injection, schedule: Q04DX002 (ip), vehicle: saline with Tween-80 86 % of control

N#CCc1ccccc1-c1ccccc1CC#N
inactive: dose: 5.0 mg/kg/injection, schedule: Q01DX001 (ip), vehicle: other 106 % of control | dose: 10.0 mg/kg/injection, schedule: Q01DX001 (ip), vehicle: other 100 % of control | dose: 20.0 mg/kg/injection, schedule: Q01DX001 (ip), vehicle: other 96 % of control | dose: 40.0 mg/kg/injection, schedule: Q01DX001 (ip), vehicle: other 104 % of control

CN(c1ccccc1Cl)S(C)(=O)=O
inactive: [1] 98 % of control | [2] 97 % of control | [3] 90 % of control

COc1ccc(NC(=O)Oc2cc(C)c(Cl)cc2C(C)C)c(Cl)c1
inactive: dose: 50.0 mg/kg/injection, schedule: Q01DX009 (ip), vehicle: Klucel (hydroxypropylcellulose) (HPC) 100 % of control | dose: 100.0 mg/kg/injection, schedule: Q01DX009 (ip), vehicle: Klucel (hydroxypropylcellulose) (HPC) 96 % of control | dose: 100.0 mg/kg/injection, schedule: Q04DX003 (ip), vehicle: Klucel (hydroxypropylcellulose) (HPC) 98 % of control | dose: 200.0 mg/kg/injection, schedule: Q01DX009 (ip), vehicle: Klucel (hydroxypropylcellulose) (HPC) 96 % of control | dose: 200.0 mg/kg/injection, schedule: Q04DX003 (ip), vehicle: Klucel (hydroxypropylcellulose) (HPC) 98 % of control | dose: 400.0 mg/kg/injection, schedule: Q04DX003 (ip), vehicle: Klucel (hydroxypropylcellulose) (HPC) 100 % of control

NNC(=O)CCCO
inactive: [7] 102 % of control | dose: 200.0 mg/kg/injection, schedule: Q01DX009 (ip), vehicle: saline 101 % of control | dose: 400.0 mg/kg/injection, schedule: Q01DX009 (ip), vehicle: saline 102 % of control

CN(C)c1ccc(C=C(c2ccc(N)cc2)c2ccc(N)cc2)cc1
inactive: [4] 91 % of control | [5] 92 % of control | [6] 94 % of control
